Source: patent publication US11059778B2, “Cannabinoid receptor CB2 ligand 4-(aminomethyl)-N, N-dialkylanilines” (UNIVERSITY OF PITTSBURGH—OF THE COMMONWEALTH SYSTEM OF …, priority 2015, dated 2021)

Test system: osteoclast precursor RAW264.7 cells
Assay type: cell-based
Procedure: FIGS. 6A and 6B relate to cAMP Assay Results. Cytotoxicity effects of the synthesized CB2 ligands. FIG. 5A: Cytotoxicity effects of compound 15. FIG. 5B: Cytotoxicity effects of compound 18. Osteoclast precursor RAW264.7 cells (1.5×10^3 cells/well) were seeded on 96-well plates. Cells were incubated with the indicated doses of compounds 15 and 18 for 48 hours. The percentage of cell survival was determined by the MTT assay. Data is the mean±SD of three experiments carried out in duplicate.
The cell-proliferation effect of our CB2 ligands on the osteoclast precursor RAW264.7 cells was assessed using MTT 3-(4,5-dimethylthiazol-2-yl)-2,5-diphenyltetrazolium bromide (Sigma, St. Louis, USA). […] Optical density was read at 540 nm and subtracted from the background at 720 nm. The effect of ligands on cell viability was expressed as percent cell viability, with vehicle-treated control cells set at 100% (Feng, R., et al., KD5170, a novel mercaptoketone-based histone deacetylase inhibitor, exerts antimyeloma effects by DNA damage and mitochondrial signaling. Mol Cancer Ther 2008, 7 (6), 1494-505).
The cytotoxicity assay was carried out to exclude that the high osteoclast formation inhibition effects were not due to the toxicity of the newly discovered compounds. The cytotoxic effects were measured by utilizing the MTT cell-viability assay. […]

| Structure (SMILES) | cell viability as compared to the control group (MTT) |
| --- | --- |
| CCN(CC)c1ccc(CN(Cc2cc(OC)c(OC)c(OC)c2)S(=O)(=O)/C=C/c2ccccc2)cc1 [Compound 15, (E)-N-(4-(diethylamino)benzyl)-2-phenyl-N-(3,4,5-trimethoxybenzyl)ethene-1-sulfonamidebenzenesulfonamide] | not significantly altered |
| CCN(CC)c1ccc(CN(Cc2cc(OC)c(OC)c(OC)c2)S(=O)(=O)c2ccc(C=O)cc2)cc1 [Compound 18, N-(4-(diethylamino)benzyl)-4-formyl-N-(3,4,5-trimethoxybenzyl)benzenesulfonamide] | not significantly altered |
